For assay [1], the target named is T1, C-X-C chemokine receptor type 4 (Homo sapiens, UniProt P61073). The assay can be described thus: Displacement of [125I]-SDF-1alpha from human CXCR4 receptor expressed in HEK293 cells after 1 hr by gamma counting. Format: cell-based.
Assay [2] addresses T1, C-X-C chemokine receptor type 4. Kind of assay: Antagonist activity at CXCR4 receptor in human REH cells assessed as inhibition of SDF-1alpha-induced chemotactic migration after 3 hrs. It is filed as functional, cell-based.
For assay [3] the target is unchanged. Kind of assay: Agonist activity at CXCR4 receptor in human REH cells assessed as induction of chemotactic migration at 10 to 100 nM after 3 hrs. Format: functional, cell-based.
Assay [4] shares this target. The assay can be described thus: Agonist activity at CXCR4 receptor in human REH cells assessed as induction of chemotactic migration at 1 uM after 3 hrs. It is filed as functional, cell-based.

pIC50: −log10 of the molar value. Calls of active or inactive are those of the source. No cut-off for these calls is given here.

T1 sequence (P61073 whole entry): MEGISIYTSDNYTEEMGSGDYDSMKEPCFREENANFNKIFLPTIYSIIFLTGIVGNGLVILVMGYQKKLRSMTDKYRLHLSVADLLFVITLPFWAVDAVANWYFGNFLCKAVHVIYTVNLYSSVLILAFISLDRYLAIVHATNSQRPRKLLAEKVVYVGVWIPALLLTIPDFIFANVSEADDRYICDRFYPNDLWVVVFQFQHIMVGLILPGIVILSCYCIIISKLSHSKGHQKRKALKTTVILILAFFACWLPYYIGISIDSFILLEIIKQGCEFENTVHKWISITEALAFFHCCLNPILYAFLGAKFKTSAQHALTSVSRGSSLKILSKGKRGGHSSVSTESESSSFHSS

`CC(C)C[C@H](NC(=O)[C@H](CO)NC(=O)[C@@H](NC(=O)[C@@H]1CCCN1C(=O)[C@@H](N)CCCCN)C(C)C)C(=O)N[C@@H](CO)C(=O)N[C@@H](Cc1ccc(O)cc1)C(=O)NCCCC[C@@H]1NC(=O)[C@H](CCCNC(=N)N)NC(=O)[C@H](Cc2ccc(O)cc2)NC(=O)[C@@H]2CCCN2C(=O)[C@@H](CCCCN)NC(=O)[C@H](CCCCN)NC(=O)[C@H](CCCNC(=N)N)NC(=O)[C@H](Cc2ccc(O)cc2)NC(=O)[C@@H](NC(=O)[C@H](Cc2ccc3ccccc3c2)NC(=O)[C@H](CCCNC(=N)N)NC(=O)[C@@H](N)CCCNC(=N)N)CSSC[C@@H](C(=O)N[C@@H](CCCNC(=N)N)C(=O)O)CC1=O`: in assay [1], the pIC50 (usually the IC50 on a negative log10 scale, so that one unit is a factor of ten) is 8.65. Besides, the outcome in assay [2] was Active.

Regarding `CC(C)C[C@H](NC(=O)[C@H](CO)NC(=O)[C@@H](NC(=O)[C@@H]1CCCN1C(=O)[C@@H](N)CCCCN)C(C)C)C(=O)N[C@@H](CO)C(=O)N[C@@H](Cc1ccc(O)cc1)C(=O)N[C@@H](CCCNC(=N)N)C(=O)N[C@@H](CO)C(=O)N1CCC[C@H]1C(=O)NCCCC[C@H](NC(=O)[C@@H]1CSSC[C@H](NC(=O)[C@H](Cc2ccc3ccccc3c2)NC(=O)[C@H](CCCNC(=N)N)NC(=O)[C@@H](N)CCCNC(=N)N)C(=O)N[C@@H](Cc2ccc(O)cc2)C(=O)N[C@@H](CCCNC(=N)N)C(=O)N[C@@H](CCCCN)C(=O)N[C@H](CCCCN)C(=O)N2CCC[C@H]2C(=O)N[C@@H](Cc2ccc(O)cc2)C(=O)N[C@@H](CCCNC(=N)N)C(=O)N[C@@H](CCCNC(=N)N)C(=O)C1)C(=O)O`, the result in assay [3] was Active. In assay [1], this molecule gave a negative-log IC50 (pIC50) of 8.02.

Turning to `CC(C)C[C@H](NC(=O)[C@H](CO)NC(=O)[C@@H](NC(=O)[C@@H]1CCCN1C(=O)[C@@H](N)CCCCN)C(C)C)C(=O)N[C@@H](CO)C(=O)N[C@@H](Cc1ccc(O)cc1)C(=O)NCCCC[C@@H](NC(=O)[C@@H]1CSSC[C@H](NC(=O)[C@H](Cc2ccc3ccccc3c2)NC(=O)[C@H](CCCNC(=N)N)NC(=O)[C@@H](N)CCCNC(=N)N)C(=O)N[C@@H](Cc2ccc(O)cc2)C(=O)N[C@@H](CCCNC(=N)N)C(=O)N[C@@H](CCCCN)C(=O)N[C@H](CCCCN)C(=O)N2CCC[C@H]2C(=O)N[C@@H](Cc2ccc(O)cc2)C(=O)N[C@@H](CCCNC(=N)N)C(=O)N[C@@H](CCCNC(N)=O)C(=O)C1)C(=O)O`, the result in assay [4] was Active. Further, the negative-log IC50 (pIC50) in assay [1] (hek293) was 6.77.
